Laboratory results taken from patent US8637484B2, “Modulation of growth hormone receptor expression and insulin-like growth factor expression” (Antisense Therapeutic Limited, priority 2003, dated 2014).
In the oligonucleotide strings, read from the 5' end, every base follows the letter of its sugar. An asterisk marks phosphorothioate; unmarked linkages are phosphodiester. Other units and linkages are bracketed, terminal groups are in braces. A string of capitals states the bases alone. e = 2'-O-(2-methoxyethyl) (MOE); [5mC] = 5-methylcytosine; d = 2'-deoxy (DNA)

Experiments:
[1] = tested on: mouse growth hormone receptor mRNA; test: Inhibition of mouse growth hormone receptor mRNA levels in b.END cells, quantitative real-time PCR; assay type: cell-based; settings: dose-response studies
Description: The mouse brain endothelial cell line b.END was obtained from Dr. Werner Risau at the Max Plank Instititute (Bad Nauheim, Germany). b.END cells were routinely cultured in DMEM, high glucose (Gibco/Life Technologies, Gaithersburg, Md.) supplemented with 10% fetal calf serum (Gibco/Life Technologies, Gaithersburg, Md.). Cells were routinely passaged by trypsinization and dilution when they reached 90% confluence. Cells were seeded into 96-well plates (Falcon-Primaria #3872) at a density of 3000 cells/well for use in RT-PCR analysis.
When cells reached 65-75% confluency, they were treated with oligonucleotide. For cells grown in 96-well plates, wells were washed once with 100 μL OPTI-MEM™-1 reduced-serum medium (Invitrogen Corporation, Carlsbad, Calif.) and then treated with 130 μL of OPTI-MEM™-1 containing 3.75 μg/mL LIPOFECTIN™ (Invitrogen Corporation, Carlsbad, Calif.) and the desired concentration of oligonucleotide. Cells are treated and data are obtained in triplicate. After 4-7 hours of treatment at 37° C., the medium was replaced with fresh medium. Cells were harvested 16-24 hours after oligonucleotide treatment.
Total RNA was isolated using an RNEASY 96™ kit and buffers purchased from Qiagen Inc. (Valencia, Calif.) following the manufacturer's recommended procedures. Briefly, for cells grown on 96-well plates, growth medium was removed from the cells and each well was washed with 200 μL cold PBS. 150 μL Buffer RLT was added to each well and the plate vigorously agitated for 20 seconds. 150 μL of 70% ethanol was then added to each well and the contents mixed by pipetting three times up and down. The samples were then transferred to the RNEASY 96™ well plate attached to a QIAVAC™ manifold fitted with a waste collection tray and attached to a vacuum source. Vacuum was applied for 1 minute. 500 μL of Buffer RW1 was added to each well of the RNEASY 96™ plate and incubated for 15 minutes and the vacuum was again applied for 1 minute. An additional 500 μL of Buffer RW1 was added to each well of the RNEASY 96™ plate and the vacuum was applied for 2 minutes. 1 mL of Buffer RPE was then added to each well of the RNEASY 96™ plate and the vacuum applied for a period of 90 seconds. The Buffer RPE wash was then repeated and the vacuum was applied for an additional 3 minutes. The plate was then removed from the QIAVAC™ manifold and blotted dry on paper towels. The plate was then re-attached to the QIAVAC™ manifold fitted with a collection tube rack containing 1.2 mL collection tubes. RNA was then eluted by pipetting 140 μL of RNAse free water into each well, incubating 1 minute, and then applying the vacuum for 3 minutes.
Quantitation of growth hormone receptor mRNA levels was accomplished by real-time quantitative PCR using the ABI PRISM™ 7600, 7700, or 7900 Sequence Detection System (PE-Applied Biosystems, Foster City, Calif.) according to manufacturer's instructions. This is a closed-tube, non-gel-based, fluorescence detection system which allows high-throughput quantitation of polymerase chain reaction (PCR) products in real-time. As opposed to standard PCR in which amplification products are quantitated after the PCR is completed, products in real-time quantitative PCR are quantitated as they accumulate. This is accomplished by including in the PCR reaction an oligonucleotide probe that anneals specifically between the forward and reverse PCR primers, and contains two fluorescent dyes. A reporter dye (e.g., FAM or JOE, obtained from either PE-Applied Biosystems, Foster City, Calif., Operon Technologies Inc., Alameda, Calif. or Integrated DNA Technologies Inc., Coralville, Iowa) is attached to the 5′ end of the probe and a quencher dye (e.g., TAMRA, obtained from either PE-Applied Biosystems, Foster City, Calif., Operon Technologies Inc., Alameda, Calif. or Integrated DNA Technologies Inc., Coralville, Iowa) is attached to the 3′ end of the probe. […]

[2] = Body weight, growth and organ weights, 1 week pilot study; assay type: in vivo, mouse; settings: 1 week study; g/total body weight
Description: Saline, antisense, mismatch control and octreotide samples were prepared, and coded for blinding. Animals were given a subcutaneous dose of saline every second day, and mismatch control or antisense with administration on days 0, 2, 4, 6. Animals were given twice daily doses of 25 μg octreotide. Animals were housed 4 per cage, for the duration of one week. They had access to a pre-determined quantity of standard mouse food and water at all times throughout the experiment. They were housed in a quiet, temperature- and humidity-maintained environment for the entirety of the study. At day 0 and before treatment on each day or second day, the animals had their body weight and food intake measured, enabling the correct dose of agent to be administered. The animals were monitored closely for any changes in fur, skin, eye, locomotion or other changes in behavior. No problems were observed. Every second day from day −7 to day 7 body weight and food intake were measured.
The serum remaining following the insulin-like growth factor-1 assay was isolated and stored at −80° C. The whole liver was removed rapidly for weighing and snap-frozen in labelled aluminum parcels by submersion in liquid-nitrogen. […]
This confirms published results of others. […] Weight was measured in two ways: weight trend (live animal), and final carcass weight. […]

[3] = tested on: growth hormone receptor mRNA; test: Growth hormone receptor mRNA levels in liver, two-week mouse study; assay type: in vivo
Description: A two-week study was done in similar fashion to the one-week study in Example 18, this time using ISIS 227446 at doses of 3, 5, 10, 20 and 30 mg/kg. The mismatch control was given at the same doses. Mice were treated with antisense compound or saline every other day for 14 days.
Growth hormone receptor mRNA levels in liver tissue samples from treated and untreated mice in this two-week study were assayed. The growth hormone receptor antisense inhibitor ISIS 227446 reduced growth hormone receptor mRNA levels in liver after the two-week study by 50% at the 20 mg/kg dose relative to saline control (p<0.001). The 30 mg/kg dose of ISIS 227446 yielded a 53% decrease in growth hormone receptor mRNA (p<0.0001). The mismatch control oligonucleotide ISIS 261303 (SEQ ID NO: 267), at 30 mg/kg, reduced growth hormone receptor mRNA levels by approximately 3%.

Which results are given for “acaaagatccatacctgaga (eA*e[5mC]*eA*eA*eA*dG*dA*dT*d[5mC]*d[5mC]*dA*dT*dA*d[5mC]*d[5mC]*eT*eG*eA*eG*eA; antisense) [ISIS 227446]”?
IC50 [1]: ~25 nM; liver weight [2]: unaffected; reduction of growth hormone receptor mRNA levels in liver relative to saline control ([3]; 20 mg/kg): 50%; decrease in growth hormone receptor mRNA in liver ([3]; 30 mg/kg): 53%
